From PubChem BioAssay (NCI)
Values joined by “and” are separate entries in the source; they are usually repeats but may differ in a detail not shown here. Identical values can stand only once.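 48-hour exposure; five concentrations; linearly interpolated endpoints. GI50 marks 50% less growth. TGI: total growth inhibition.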

Test system: MOLT-4 leukemia
Assay: inhibition of tumour cell growth, NCI panel, 48 h

SMILES | TGI
O=C1/C(=C/c2ccc([N+](=O)[O-])cc2)C(=O)N(c2ccccc2)C1c1ccccc1 (stereo not given) | > 10 µM
NC(N)=NCCC[C@H](N)C(=O)NCC(=O)N[C@@H](CC(=O)O)c1ncc(NC(=O)C(F)(F)F)o1 | > 25 µM
Cc1cc(S(=O)(=O)N=C2N(Cc3ccccc3)CCN2Cc2ccccc2)c(S)cc1Cl | > 100 µM
Oc1ccc(-c2nc(-c3cccnc3)c(-c3ccc(Cl)cc3)[nH]2)cc1 | 18.1 µM
CSc1ccc2c(cc1=O)[C@@H](NC(=O)c1ccc(N)cc1)CCc1cc(O)c(O)c(O)c1-2 | > 100 µM
CN1CCC(O)(C(C)(C)C)CC1 | > 100 µM
Cn1cc(NC(=O)c2cc(NC(=O)CN=C(N)N)cn2C)cc1C(=O)NCCC(=N)N | > 100 µM
CCOC(=O)c1cc(C(O)P2(=O)N(CC(C)(C)C)[C@@H]3CCCC[C@H]3N2CC(C)(C)C)cn1C(=O)OC(C)(C)C (stereo not given in full) | 34 µM
COc1cc(/C=C2/C[C@H]3[C@@H]4CC=C5C[C@@H](O)CC[C@]5(C)[C@H]4CC[C@]3(C)NC2=O)cc(OC)c1OC | > 100 µM
O=C1C=C(C2=CC(=O)C(=O)c3ccccc32)c2ccccc2C1=O | 15.4 µM
C(=Nc1ccc(-c2nc3ccccc3[nH]2)cc1)c1cccs1 | > 100 µM
C[N+](C)(C)CC1CCCCCCCCCCC1=O (stereo not given) | > 100 µM
Cn1c2c(c3ccccc31)CC1c3c(c4ccccc4n3C)CC21 (stereo not given) | > 100 µM
Cc1ccc(/C=C2\CCCc3ccccc3C2=O)cc1 | 52.8 µM
COCN(CCC1=CCCCC1)C(=O)OC | > 100 µM
NN/C(=N\S(=O)(=O)c1cc2ccccc2s1)Nc1ccc(Cl)cc1 | 68 µM

Test system: M14 melanoma
Assay: inhibition of tumour cell growth, NCI panel, 48 h

SMILES | TGI | GI50
COc1cc(C(=O)N(Cc2cccnc2)C(=S)N(Cc2cccnc2)C(=O)c2cc(OC)c(OC)c(OC)c2)cc(OC)c1OC | > 100 µM | 
COc1cc(CNCc2cc(OC)c(OC)c(OC)c2)cc(OC)c1OC | > 10 µM | 
CCOC(=O)CNc1c(OCc2ccccc2)c(=O)c1=O | > 100 µM | 
Oc1c(CN2CCOCC2)ccc2cccnc12 | > 10 µM | 
Cc1ccc2c(c1)C(C(=O)N[C@@H]1C(=O)N3[C@@H]1SC(C)(C)[C@@H]3C(=O)O)OCCC2 (stereo not given in full) | > 100 µM | 
CCOCc1nc2c(OC)cc(-c3nc4ccc(N5CCN(C)CC5)cc4[nH]3)c(OC)c2[nH]1 | 35.3 µM | 
CON(C)C(=O)CNC(=O)OCC1c2ccccc2-c2ccccc21 | > 100 µM | 
CCOC(=O)C(=Cc1[nH]c2ccccc2c1-c1c[nH]c2ccccc12)C(=O)OCC | 21.7 µM | 
CSc1ncnc2c1ncn2C1CC(Oc2ccc(C)cc2)C(COc2ccc(C)cc2)O1 (stereo not given) | > 100 µM | 
Cc1ccc(N=Nc2c(O)ccc3cc(S(=O)(=O)O)cc(S(=O)(=O)O)c23)cc1 | > 100 µM | 
O=C(O)Cc1cccc2c(=O)c3ccccc3oc12 | > 100 µM | 
CCOC(=O)N/N=C(/N)c1cccc([N+](=O)[O-])c1 | > 100 µM | 
COC1=C(OC)C(=O)C(Cc2c(C)nc3sc(C)cn23)=C(C)C1=O | 32.8 µM | 
CC(=O)OC(/C=C/c1ccccc1)=C(OC(C)C)/C1=C(\c2ccccc2)SCCCSC1=O | > 100 µM | 
COc1cccc(-c2ccc3c4c2O[C@H]2C(=O)CC[C@@]5(O)[C@@H](C3)N(CC3CC3)CC[C@]425)c1 | 28.1 µM | 
O=C1/C(=C/c2ccc([N+](=O)[O-])cc2)C(=O)N(c2ccccc2)C1c1ccccc1 (stereo not given) | > 10 µM | 

SMILES | TGI | GI50
NC(N)=NCCC[C@H](N)C(=O)NCC(=O)N[C@@H](CC(=O)O)c1ncc(NC(=O)C(F)(F)F)o1 | > 25 µM | 
Cc1cc(S(=O)(=O)N=C2N(Cc3ccccc3)CCN2Cc2ccccc2)c(S)cc1Cl | > 100 µM | 
Oc1ccc(-c2nc(-c3cccnc3)c(-c3ccc(Cl)cc3)[nH]2)cc1 | 26.1 µM | 
CSc1ccc2c(cc1=O)[C@@H](NC(=O)c1ccc(N)cc1)CCc1cc(O)c(O)c(O)c1-2 | 27.9 µM and 36.5 µM | 13.5 µM and 5.66 µM
CN1CCC(O)(C(C)(C)C)CC1 | > 100 µM | 
Cn1cc(NC(=O)c2cc(NC(=O)CN=C(N)N)cn2C)cc1C(=O)NCCC(=N)N | > 100 µM | 
CCOC(=O)c1cc(C(O)P2(=O)N(CC(C)(C)C)[C@@H]3CCCC[C@H]3N2CC(C)(C)C)cn1C(=O)OC(C)(C)C (stereo not given in full) | 29.7 µM | 
COc1cc(/C=C2/C[C@H]3[C@@H]4CC=C5C[C@@H](O)CC[C@]5(C)[C@H]4CC[C@]3(C)NC2=O)cc(OC)c1OC | > 100 µM | 
O=C1C=C(C2=CC(=O)C(=O)c3ccccc32)c2ccccc2C1=O | > 100 µM | 
C(=Nc1ccc(-c2nc3ccccc3[nH]2)cc1)c1cccs1 | > 100 µM | 
C[N+](C)(C)CC1CCCCCCCCCCC1=O (stereo not given) | > 100 µM | 
Cn1c2c(c3ccccc31)CC1c3c(c4ccccc4n3C)CC21 (stereo not given) | > 100 µM | 
Cc1ccc(/C=C2\CCCc3ccccc3C2=O)cc1 | 20.4 µM | 
COCN(CCC1=CCCCC1)C(=O)OC | > 100 µM | 
NN/C(=N\S(=O)(=O)c1cc2ccccc2s1)Nc1ccc(Cl)cc1 | 37.9 µM | 

Test system: OVCAR-8 ovarian
Assay: inhibition of tumour cell growth, NCI panel, 48 h

SMILES | TGI
COc1cc(C(=O)N(Cc2cccnc2)C(=S)N(Cc2cccnc2)C(=O)c2cc(OC)c(OC)c(OC)c2)cc(OC)c1OC | > 100 µM
COc1cc(CNCc2cc(OC)c(OC)c(OC)c2)cc(OC)c1OC | > 10 µM
CCOC(=O)CNc1c(OCc2ccccc2)c(=O)c1=O | > 100 µM
Oc1c(CN2CCOCC2)ccc2cccnc12 | > 10 µM
Cc1ccc2c(c1)C(C(=O)N[C@@H]1C(=O)N3[C@@H]1SC(C)(C)[C@@H]3C(=O)O)OCCC2 (stereo not given in full) | > 100 µM
CCOCc1nc2c(OC)cc(-c3nc4ccc(N5CCN(C)CC5)cc4[nH]3)c(OC)c2[nH]1 | > 100 µM
CON(C)C(=O)CNC(=O)OCC1c2ccccc2-c2ccccc21 | > 100 µM
CCOC(=O)C(=Cc1[nH]c2ccccc2c1-c1c[nH]c2ccccc12)C(=O)OCC | 25.8 µM
CSc1ncnc2c1ncn2C1CC(Oc2ccc(C)cc2)C(COc2ccc(C)cc2)O1 (stereo not given) | > 100 µM
Cc1ccc(N=Nc2c(O)ccc3cc(S(=O)(=O)O)cc(S(=O)(=O)O)c23)cc1 | > 100 µM
O=C(O)Cc1cccc2c(=O)c3ccccc3oc12 | > 100 µM
CCOC(=O)N/N=C(/N)c1cccc([N+](=O)[O-])c1 | > 100 µM
COC1=C(OC)C(=O)C(Cc2c(C)nc3sc(C)cn23)=C(C)C1=O | 32.8 µM
CC(=O)OC(/C=C/c1ccccc1)=C(OC(C)C)/C1=C(\c2ccccc2)SCCCSC1=O | > 100 µM
COc1cccc(-c2ccc3c4c2O[C@H]2C(=O)CC[C@@]5(O)[C@@H](C3)N(CC3CC3)CC[C@]425)c1 | 34.3 µM
O=C1/C(=C/c2ccc([N+](=O)[O-])cc2)C(=O)N(c2ccccc2)C1c1ccccc1 (stereo not given) | > 10 µM

SMILES | TGI
NC(N)=NCCC[C@H](N)C(=O)NCC(=O)N[C@@H](CC(=O)O)c1ncc(NC(=O)C(F)(F)F)o1 | > 25 µM
Cc1cc(S(=O)(=O)N=C2N(Cc3ccccc3)CCN2Cc2ccccc2)c(S)cc1Cl | > 100 µM
Oc1ccc(-c2nc(-c3cccnc3)c(-c3ccc(Cl)cc3)[nH]2)cc1 | 28.4 µM
CSc1ccc2c(cc1=O)[C@@H](NC(=O)c1ccc(N)cc1)CCc1cc(O)c(O)c(O)c1-2 | > 75 µM and 59.1 µM
CN1CCC(O)(C(C)(C)C)CC1 | > 100 µM
Cn1cc(NC(=O)c2cc(NC(=O)CN=C(N)N)cn2C)cc1C(=O)NCCC(=N)N | > 100 µM
CCOC(=O)c1cc(C(O)P2(=O)N(CC(C)(C)C)[C@@H]3CCCC[C@H]3N2CC(C)(C)C)cn1C(=O)OC(C)(C)C (stereo not given in full) | 47.1 µM
COc1cc(/C=C2/C[C@H]3[C@@H]4CC=C5C[C@@H](O)CC[C@]5(C)[C@H]4CC[C@]3(C)NC2=O)cc(OC)c1OC | > 70.8 µM
O=C1C=C(C2=CC(=O)C(=O)c3ccccc32)c2ccccc2C1=O | 75.7 µM
C(=Nc1ccc(-c2nc3ccccc3[nH]2)cc1)c1cccs1 | > 100 µM
C[N+](C)(C)CC1CCCCCCCCCCC1=O (stereo not given) | > 100 µM
Cn1c2c(c3ccccc31)CC1c3c(c4ccccc4n3C)CC21 (stereo not given) | > 100 µM
Cc1ccc(/C=C2\CCCc3ccccc3C2=O)cc1 | > 100 µM
COCN(CCC1=CCCCC1)C(=O)OC | > 100 µM
NN/C(=N\S(=O)(=O)c1cc2ccccc2s1)Nc1ccc(Cl)cc1 | 47.9 µM

Test system: 786-0 renal
Assay: inhibition of tumour cell growth, NCI panel, 48 h

SMILES | TGI
COc1cc(C(=O)N(Cc2cccnc2)C(=S)N(Cc2cccnc2)C(=O)c2cc(OC)c(OC)c(OC)c2)cc(OC)c1OC | > 100 µM
COc1cc(CNCc2cc(OC)c(OC)c(OC)c2)cc(OC)c1OC | > 10 µM
CCOC(=O)CNc1c(OCc2ccccc2)c(=O)c1=O | > 100 µM
Oc1c(CN2CCOCC2)ccc2cccnc12 | > 10 µM
Cc1ccc2c(c1)C(C(=O)N[C@@H]1C(=O)N3[C@@H]1SC(C)(C)[C@@H]3C(=O)O)OCCC2 (stereo not given in full) | > 100 µM
CCOCc1nc2c(OC)cc(-c3nc4ccc(N5CCN(C)CC5)cc4[nH]3)c(OC)c2[nH]1 | > 100 µM
CON(C)C(=O)CNC(=O)OCC1c2ccccc2-c2ccccc21 | > 100 µM
CCOC(=O)C(=Cc1[nH]c2ccccc2c1-c1c[nH]c2ccccc12)C(=O)OCC | 7.15 µM
CSc1ncnc2c1ncn2C1CC(Oc2ccc(C)cc2)C(COc2ccc(C)cc2)O1 (stereo not given) | > 100 µM
Cc1ccc(N=Nc2c(O)ccc3cc(S(=O)(=O)O)cc(S(=O)(=O)O)c23)cc1 | > 100 µM
O=C(O)Cc1cccc2c(=O)c3ccccc3oc12 | > 100 µM
CCOC(=O)N/N=C(/N)c1cccc([N+](=O)[O-])c1 | > 100 µM
COC1=C(OC)C(=O)C(Cc2c(C)nc3sc(C)cn23)=C(C)C1=O | 39.4 µM
CC(=O)OC(/C=C/c1ccccc1)=C(OC(C)C)/C1=C(\c2ccccc2)SCCCSC1=O | > 100 µM
COc1cccc(-c2ccc3c4c2O[C@H]2C(=O)CC[C@@]5(O)[C@@H](C3)N(CC3CC3)CC[C@]425)c1 | 32.1 µM
O=C1/C(=C/c2ccc([N+](=O)[O-])cc2)C(=O)N(c2ccccc2)C1c1ccccc1 (stereo not given) | > 10 µM

SMILES | TGI
NC(N)=NCCC[C@H](N)C(=O)NCC(=O)N[C@@H](CC(=O)O)c1ncc(NC(=O)C(F)(F)F)o1 | > 25 µM
Cc1cc(S(=O)(=O)N=C2N(Cc3ccccc3)CCN2Cc2ccccc2)c(S)cc1Cl | > 100 µM
Oc1ccc(-c2nc(-c3cccnc3)c(-c3ccc(Cl)cc3)[nH]2)cc1 | 28.8 µM
CSc1ccc2c(cc1=O)[C@@H](NC(=O)c1ccc(N)cc1)CCc1cc(O)c(O)c(O)c1-2 | 27.6 µM and 41.1 µM
CN1CCC(O)(C(C)(C)C)CC1 | > 100 µM
Cn1cc(NC(=O)c2cc(NC(=O)CN=C(N)N)cn2C)cc1C(=O)NCCC(=N)N | > 100 µM
CCOC(=O)c1cc(C(O)P2(=O)N(CC(C)(C)C)[C@@H]3CCCC[C@H]3N2CC(C)(C)C)cn1C(=O)OC(C)(C)C (stereo not given in full) | 31 µM
COc1cc(/C=C2/C[C@H]3[C@@H]4CC=C5C[C@@H](O)CC[C@]5(C)[C@H]4CC[C@]3(C)NC2=O)cc(OC)c1OC | 57.1 µM
O=C1C=C(C2=CC(=O)C(=O)c3ccccc32)c2ccccc2C1=O | > 100 µM
C(=Nc1ccc(-c2nc3ccccc3[nH]2)cc1)c1cccs1 | > 100 µM
C[N+](C)(C)CC1CCCCCCCCCCC1=O (stereo not given) | > 100 µM
Cn1c2c(c3ccccc31)CC1c3c(c4ccccc4n3C)CC21 (stereo not given) | > 100 µM
Cc1ccc(/C=C2\CCCc3ccccc3C2=O)cc1 | > 100 µM
COCN(CCC1=CCCCC1)C(=O)OC | > 100 µM
NN/C(=N\S(=O)(=O)c1cc2ccccc2s1)Nc1ccc(Cl)cc1 | 35.4 µM
